# Reference: ChEMBL document CHEMBL1130374, “Resolution and biological activities of optical isomers of 1,4-diethyl-3,6-epidithiopiperazine-2,5-dione” (1997)
# Tests used:
# Mus musculus [1] = species on record: Mus musculus; experiment: The extent of apoptosis was determined by evaluating the subdiploid population of propidium iodide stained cells using flow cytometry after 9 hr using thymocytes from mice; type: functional, Thymocyte
# Mus musculus [2] = species on record: Mus musculus; experiment: Compound was evaluated for macrophage adherence in thioglycolate induced mouse macrophages; type: functional; conditions: read-out: ED50 (the source's name)
# P815 = experiment: Compound was evaluated for Thymidine incorporation in P815 cell lines; type: functional; conditions: Mus musculus, read-out: ED50 (the source's name)
# [3] = biological target: Creatine kinase M-type (Oryctolagus cuniculus) (UniProt P00563); experiment: Compound was evaluated for interaction with the creatine kinase in rabbit muscle after 6 hr; design: reference not given here
# Chain of Creatine kinase M-type (Oryctolagus cuniculus) (P00563 whole entry, looked up): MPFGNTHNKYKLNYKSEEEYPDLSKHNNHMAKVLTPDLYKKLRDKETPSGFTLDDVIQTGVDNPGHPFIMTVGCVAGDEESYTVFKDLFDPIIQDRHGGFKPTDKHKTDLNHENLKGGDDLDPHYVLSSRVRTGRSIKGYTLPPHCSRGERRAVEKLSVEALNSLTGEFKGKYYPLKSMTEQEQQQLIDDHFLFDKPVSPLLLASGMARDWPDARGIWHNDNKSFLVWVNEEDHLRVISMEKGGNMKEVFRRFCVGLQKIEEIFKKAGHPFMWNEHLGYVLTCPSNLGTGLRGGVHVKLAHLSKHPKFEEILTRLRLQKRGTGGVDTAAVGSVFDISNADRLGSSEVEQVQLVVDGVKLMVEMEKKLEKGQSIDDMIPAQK
EC50 (Mus musculus [2]),EC50 (P815),Activity [3],Structure (SMILES),Activity (Mus musculus [1])
5 µM,50 µM,34%,CCN1C(=O)[C@H]2SS[C@@H]1C(=O)N2CC,53%
8 µM,55 µM,34%,CCN1C(=O)[C@@H]2SS[C@H]1C(=O)N2CC,57%
2.5 µM,35 µM,35%,CCN1C(=O)C2SSC1C(=O)N2CC (racemic),54%

Structure (SMILES),EC50 (Mus musculus [2]),EC50 (P815),Activity [3],Activity (Mus musculus [1])
CN1C(=O)[C@]23CC4=CC=C[C@H](O)[C@H]4N2C(=O)[C@@]1(CO)SS3 [GLIOTOXIN],0.35 µM,2 µM,32%,59%
